{"source": "patent US3996263A", "about": "“9-Oxo-11α-methyl-15.EPSILON.-hyroxyprost-13(trans)-enoic acid derivatives and process for the preparaion thereof” (priority 1975, dated 1976)", "key": {"[1]": {"conditions": "stated for prior prostaglandins; cited from earlier work"}, "diarrheal activity": {"assay": "diarrheal activity", "format": "in vivo", "conditions": "in words"}, "[2]": {"test_system": "stress-induced ulceration in rats", "assay": "Inhibition of the stress-induced ulceration by prostaglandins, rats", "format": "in vivo, Donryu strain male rats", "conditions": "for Inhibitory ratio (%): stress 8 hr at 23° C; for anti-stress ulcer potency relative to Compound C / anti-stress ulcer activity compared with PGE1 / anti-stress ulcer activity compared with PGE2: oral; for anti-stress ulcer potency relative to Compound C: versus Compound C; for anti-stress ulcer activity compared with PGE1: versus PGE1; for anti-stress ulcer activity compared with PGE2: versus PGE2", "description": "The method employed for the production and evaluation of stress ulcer was essentially same as described by Takagi and Okabe in Journal of Pharmacology vol. 18, pages 9-18 (Japan). Donryu strain male rats, 200 - 230 g in weight, were used. Animals were placed in the stress cage and immersed in a water bath kept at 23° C for 8 hr to the height of the xiphoid of the animal. At the end of the stress, the animals were killed by a blow, and stomach was removed, inflated with 10 ml of 1% formalin solution and placed into 1% formalin solution. Thereafter the stomach was cut along the greater curvature and examined for lesions macroscopically. The ulcer index was calculated as the sum of the length of each lesion in the stomach. Inhibitory ratio of ulceration was calculated for each dose. The test drugs were dissolved into 0.4% Tween 80 solution with aid of an ultrasonicator and administered orally (0.2 ml/100 g) immediately before the stress."}, "[3]": {"conditions": "cited from earlier work"}, "vasodepressor activity": {"assay": "vasodepressor activity", "format": "in vivo", "conditions": "in words"}, "[4]": {"test_system": "indomethacin-induced gastric ulceration in rats", "assay": "Inhibition of indomethacin-induced gastric ulceration by prostaglandins, rats", "format": "in vivo, Sprague-Dawley strain male rats", "conditions": "for Inhibitory ratio (%): 5 hours; for ED50: Rattus norvegicus, po, 5 h, p.o., indomethacin 30 mg/kg i.p., read-out: ED50 (50% inhibition of the ulcer formation)", "description": "The method employed for the production and evaluation of indomethacin-induced ulcers was essentially same as described by Lee, Mollison and Cheng in Archives Internationales de Pharmacodynamie et de Therapie, vol. 191, page 370 - 377 and by Lippmann in Prostaglandins, vol. 7, page 1 - 10. Sprague-Dawley strain male rats weighing 200 - 220 g were fasted 20 hours with free access to water until the start of experiment. Indomethacin was suspended in 0.4% Tween 80 (surface active agent, product of Atlas Powder Co. U.S.A.) solution and given intraperitoneally into the rats at a dose of 30 mg/kg body weight. The test drugs were dissolved in physiological saline with aid of an ultrasonicator and administered perorally immidiately after the administration of indomethacin. The animals were killed 5 hours later and the ulcer formation in the glandular portion of the stomach was determined."}, "intestinal tube": {"test_system": "intestinal tube", "conditions": "stated for prior prostaglandins; cited from earlier work"}, "gastric secretion": {"test_system": "gastric secretion", "conditions": "German Patent Offenlegungsschrift 2,313,868; cited from earlier work"}}, "data": [{"smiles": "CCCCC[C@H](O)/C=C/[C@H]1[C@H](O)CC(=O)[C@@H]1C/C=C\\CCCC(=O)O", "note": "[PGE2, reference compound]", "values": [{"measurement": "hypotensive activity", "setting": "[1]", "value": "potent hypotensive"}, {"measurement": "diarrhea (side effect)", "setting": "diarrheal activity", "value": "exhibits various side effects including diarrhea"}, {"measurement": "Inhibitory ratio (%)", "setting": "[2]; 0.3 mg/kg p.o.", "value": 17, "unit": "%"}, {"measurement": "Inhibitory ratio (%)", "setting": "[2]; 1.0 mg/kg p.o.", "value": 60, "unit": "%"}, {"measurement": "anti-ulcerogenic effects", "setting": "[3]; U.S. Pat. No. 3,781,429, Prostaglandins 1974, 6, 523-532", "value": "anti-ulcerogenic effects"}, {"measurement": "vasodepressor activity", "setting": "vasodepressor activity", "value": "vasode-pressor activity"}, {"measurement": "Inhibitory ratio (%)", "setting": "[4]; 0.05 mg/kg p.o.", "value": 57, "unit": "%"}, {"measurement": "Inhibitory ratio (%)", "setting": "[4]; 0.25 mg/kg p.o.", "value": 79, "unit": "%"}, {"measurement": "potency relative to compound A in inhibition of the indomethacin-induced ulcer formation", "setting": "[4]; PGE2 versus compound A", "value": "approximately 5 times"}, {"measurement": "ED50", "setting": "[4]", "value": 0.03, "unit": "mg/kg"}, {"measurement": "intestinal tube-contracting activity", "setting": "intestinal tube", "value": "potent hypotensive and intestinal tube-contracting activities"}]}, {"smiles": "CCCCCC(O)/C=C/C1C(C)CC(=O)C1CCCCCCC(=O)O", "note": "(stereo not drawn) [9-oxo-11β-methyl-15α(or β)-hydroxyprost-13(trans)-enoic acid]", "values": [{"measurement": "inhibition of gastric secretion", "setting": "gastric secretion", "value": "inhibit gastric secretion"}, {"measurement": "anti-ulcerogenic activity compared with prostaglandins E1 and E2", "setting": "[3]; versus prostaglandins E1 and E2", "value": "extremely lower than that of prostaglandins E1 and E2"}]}, {"smiles": "CCCCC(C)(C)[C@H](O)/C=C/[C@H]1[C@H](C)CC(=O)[C@@H]1CCCCCCC(=O)O", "note": "(relative stereo) [Compound A, 9-Oxo-11α,16,16-trimethyl-15α-hydroxyprost-13(trans)-enoic acid]", "values": [{"measurement": "Inhibitory ratio (%)", "setting": "[2]; 0.3 mg/kg p.o.", "value": 12, "unit": "%"}, {"measurement": "Inhibitory ratio (%)", "setting": "[2]; 1.0 mg/kg p.o.", "value": 73, "unit": "%"}, {"measurement": "anti-stress ulcer potency relative to Compound C", "setting": "[2]", "value": "more than 10 times"}, {"measurement": "anti-stress ulcer activity compared with PGE1", "setting": "[2]", "value": "significantly more potent than that of PGE1"}, {"measurement": "anti-stress ulcer activity compared with PGE2", "setting": "[2]", "value": "equally potent as or slightly more potent than that of PGE2"}, {"measurement": "Inhibitory ratio (%)", "setting": "[4]; 0.25 mg/kg p.o.", "value": 63, "unit": "%"}, {"measurement": "Inhibitory ratio (%)", "setting": "[4]; 0.50 mg/kg p.o.", "value": 71, "unit": "%"}, {"measurement": "ED50", "setting": "[4]", "value": 0.16, "unit": "mg/kg"}]}, {"smiles": "CCCCC(C)(C)[C@H](O)/C=C/[C@H]1[C@H](C)CC(=O)[C@@H]1CCCCCCC(=O)OC", "note": "(relative stereo) [Compound B, Methyl 9-oxo-11α,16,16-trimethyl-15α-hydroxyprost-13(trans)-enoate]", "values": [{"measurement": "Inhibitory ratio (%)", "setting": "[2]; 0.3 mg/kg p.o.", "value": 11, "unit": "%"}, {"measurement": "Inhibitory ratio (%)", "setting": "[2]; 1.0 mg/kg p.o.", "value": 92, "unit": "%"}, {"measurement": "anti-stress ulcer potency relative to Compound C", "setting": "[2]", "value": "more than 10 times"}, {"measurement": "anti-stress ulcer activity compared with PGE1", "setting": "[2]", "value": "significantly more potent than that of PGE1"}, {"measurement": "anti-stress ulcer activity compared with PGE2", "setting": "[2]", "value": "equally potent as or slightly more potent than that of PGE2"}, {"measurement": "Inhibitory ratio (%)", "setting": "[4]; 0.25 mg/kg p.o.", "value": 49, "unit": "%"}, {"measurement": "Inhibitory ratio (%)", "setting": "[4]; 0.50 mg/kg p.o.", "value": 67, "unit": "%"}, {"measurement": "ED50", "setting": "[4]", "value": 0.26, "unit": "mg/kg"}]}, {"smiles": "CCCCC[C@H](O)/C=C/[C@H]1[C@@H](C)CC(=O)[C@@H]1CCCCCCC(=O)O", "note": "(relative stereo) [Compound D, 9-Oxo-11β-methyl-15α-hydroxyprost-13(trans)-enoic acid, reference compound]", "values": [{"measurement": "Inhibitory ratio (%)", "setting": "[4]; 1.25 mg/kg p.o.", "value": 43, "unit": "%"}, {"measurement": "Inhibitory ratio (%)", "setting": "[4]; 2.5 mg/kg p.o.", "value": 61, "unit": "%"}, {"measurement": "ED50", "setting": "[4]", "value": 1.64, "unit": "mg/kg"}]}, {"smiles": "CCCCC[C@H](O)/C=C/[C@H]1[C@H](C)CC(=O)[C@@H]1CCCCCCC(=O)O", "note": "(relative stereo) [Compound C, 9-Oxo-11α-methyl-15α-hydroxyprost-13(trans)-enoic acid]", "values": [{"measurement": "Inhibitory ratio (%)", "setting": "[2]; 5.0 mg/kg p.o.", "value": 9, "unit": "%"}, {"measurement": "Inhibitory ratio (%)", "setting": "[2]; 10 mg/kg p.o.", "value": 40, "unit": "%"}, {"measurement": "Inhibitory ratio (%)", "setting": "[4]; 1.25 mg/kg p.o.", "value": 52, "unit": "%"}, {"measurement": "Inhibitory ratio (%)", "setting": "[4]; 2.5 mg/kg p.o.", "value": 68, "unit": "%"}, {"measurement": "ED50", "setting": "[4]", "value": 1.18, "unit": "mg/kg"}]}, {"smiles": "CCCCC[C@H](O)/C=C/[C@H]1[C@H](O)CC(=O)[C@@H]1CCCCCCC(=O)O", "note": "[PGE1]", "values": [{"measurement": "intestinal tube-contracting activity", "setting": "intestinal tube", "value": "potent hypotensive and intestinal tube-contracting activities"}]}]}
